Reference: ChEMBL document CHEMBL1201862, “PubChem BioAssay data set” (2004)
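Five concentrations, 48 hours, 96-well plates. GI50 is the concentration that inhibits growth by half.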 The source made the active and inactive calls. No stated cut-off is given here; in the data, active = GI50 up to about 1.1 µM and inactive = higher.

Assays:
Experiment in all cases: NCI-60 cell line screen, 48 h
UO-31 = test system: UO-31
EKVX = test system: EKVX
LOX IMVI = test system: LOX IMVI
SK-MEL-2 = test system: SK-MEL-2
CAKI-1 = test system: CAKI-1
K562 = test system: K562
NCI-H23 = test system: NCI-H23
SF-539 = test system: SF-539
HT-29 = test system: HT-29
TK-10 = test system: TK-10
NCI-H460 = test system: NCI-H460
SK-MEL-5 = test system: SK-MEL-5
IGROV-1 = test system: IGROV-1
SNB-19 = test system: SNB-19
OVCAR-8 = test system: OVCAR-8
U-251 = test system: U-251

Measured: GI50

O=C(Nc1ccccc1[N+](=O)[O-])/C(=N/Nc1cccc(Cl)c1)c1c(O)c2ccccc2oc1=O
inactive: UO-31 > 100 µM | EKVX > 100 µM | LOX IMVI > 100 µM | SK-MEL-2 > 100 µM | CAKI-1 > 100 µM | K562 25.2 µM | NCI-H23 24.9 µM | SF-539 > 100 µM | HT-29 > 100 µM | TK-10 > 100 µM | NCI-H460 38.5 µM | SK-MEL-5 49.4 µM | IGROV-1 89.3 µM | SNB-19 > 100 µM

CN(C)c1ccc(/C=c2\sc3nnc(-c4ccco4)n3c2=O)cc1
inactive: UO-31 > 100 µM | EKVX > 100 µM | LOX IMVI > 100 µM | SK-MEL-2 > 100 µM | CAKI-1 > 100 µM | K562 > 100 µM | NCI-H23 > 100 µM | SF-539 > 100 µM | OVCAR-8 > 100 µM | TK-10 > 100 µM | NCI-H460 > 100 µM | SK-MEL-5 > 100 µM | IGROV-1 > 100 µM | SNB-19 > 100 µM | U-251 57.8 µM

CCOC(=O)c1sc2c(C(=O)OCC)n3cc(C)cc(C)c3c2c1O
inactive: UO-31 > 100 µM | EKVX 29.5 µM | LOX IMVI > 100 µM | SK-MEL-2 > 100 µM | CAKI-1 > 100 µM | K562 > 100 µM | NCI-H23 > 100 µM | SF-539 > 100 µM | HT-29 > 100 µM | OVCAR-8 > 100 µM | TK-10 > 100 µM | NCI-H460 > 100 µM | SK-MEL-5 > 100 µM | IGROV-1 > 100 µM | SNB-19 > 100 µM | U-251 > 100 µM

NC(=O)NNC(=O)NC12CC3CC(CC(C3)C1)C2
inactive: UO-31 > 100 µM | EKVX > 100 µM | LOX IMVI > 100 µM | SK-MEL-2 > 100 µM | CAKI-1 > 100 µM | K562 > 100 µM | NCI-H23 > 100 µM | SF-539 > 100 µM | HT-29 > 100 µM | OVCAR-8 > 100 µM | TK-10 > 100 µM | NCI-H460 > 100 µM | SK-MEL-5 > 100 µM | IGROV-1 > 100 µM | SNB-19 > 100 µM | U-251 > 100 µM

CCOC(=O)C12CCCC1(O)N(NC(=O)c1ccccc1)C(C)=C2C(=O)OC (stereo unspecified)
inactive: UO-31 > 100 µM | EKVX > 100 µM | LOX IMVI > 100 µM | SK-MEL-2 > 100 µM | CAKI-1 > 100 µM | K562 > 100 µM | NCI-H23 > 100 µM | SF-539 > 100 µM | HT-29 > 100 µM | OVCAR-8 > 100 µM | TK-10 > 100 µM | NCI-H460 > 100 µM | IGROV-1 > 100 µM | SNB-19 > 100 µM | U-251 > 100 µM

COc1ccc2c(c1)C(O)(C(F)(F)F)c1cc(C(=O)C(F)(F)F)c3ccccc3c1N2 (stereo unspecified)
inactive: UO-31 9.86 µM | EKVX 18.3 µM | LOX IMVI 4.99 µM | SK-MEL-2 12.2 µM | CAKI-1 13.7 µM | K562 3.7 µM | NCI-H23 12.4 µM | SF-539 16.3 µM | HT-29 7.73 µM | TK-10 13.5 µM | NCI-H460 8.89 µM | SK-MEL-5 13.7 µM | IGROV-1 13.8 µM | SNB-19 16 µM

COc1cc2c(oc(=O)c3c4oc([Si](C)(C)C)cc4cc(OC)c23)c2cccc(O)c12
inactive: UO-31 > 100 µM | EKVX > 100 µM | LOX IMVI > 100 µM | SK-MEL-2 > 100 µM | CAKI-1 > 100 µM | K562 > 100 µM | NCI-H23 > 100 µM | SF-539 > 100 µM | HT-29 > 100 µM | OVCAR-8 > 100 µM | TK-10 > 100 µM | NCI-H460 > 100 µM | SK-MEL-5 > 100 µM | IGROV-1 > 100 µM | SNB-19 > 100 µM | U-251 > 100 µM
